Laboratory results as given in publication PMC12210654, “Palazestrant, a novel oral Complete Estrogen Receptor Antagonist (CERAN) and Selective Estrogen Receptor Degrader (SERD), in patients with ER+/HER2− advanced or metastatic breast cancer: phase 1/2 study results” (Breast Cancer Research : BCR, 2025).

Assay: Safety: adverse events (NCI CTCAE v5.0), electrocardiograms
Type: in vivo, human
Conditions: phase 1a; for TEAE Neutropenia, Toxicity Grade All: includes neutropenia and neutrophil count decreased
Description: Safety assessments included the monitoring of AEs, clinical laboratory parameters, electrocardiograms, and vital signs. AE severity was graded according to the National Cancer Institute Common Terminology Criteria for Adverse Events (version 5.0).
All DLT analyses (phase 1a) were performed in patients enrolled in the study during cycle 1 and who either received 75% of the planned palazestrant doses or experienced a DLT during cycle 1. All PK analyses were performed in patients who received at least 1 dose of palazestrant and had adequate postbaseline PK samples for characterization of PK parameters. All safety analyses were performed and PFS assessed in patients who received at least 1 dose of palazestrant. Clinical response (CR or PR) was assessed in patients who received at least 1 cycle of palazestrant, had measurable disease at baseline, and had at least 1 postbaseline tumor assessment. CBR was assessed in patients who received at least 1 cycle of palazestrant, had at least 1 postbaseline tumor assessment, and started their first dose at least 24 weeks before data cutoff. Patients who discontinued study treatment without radiographic progression within 24 weeks from the first dose were not included in the CBR analysis. PK parameters were estimated using conventional noncompartmental methods. For CBR, estimates were accompanied by 2-sided 95% confidence intervals (95% CIs). For PFS, Kaplan–Meier analyses were used to determine medians, event-free rates, and 95% CIs. For all other outcomes, categorical data were analyzed using frequencies and percentages, and continuous data were analyzed using means (standard deviation) or medians (range), as appropriate.

## CCCN1CC(Oc2ccc([C@@H]3c4[nH]c5ccccc5c4C[C@@H](C)N3CC(C)(C)F)cc2)C1 [palazestrant, Palazestrant]
60 mg (N=6)
  TEAE Vomiting, Toxicity Grade G3: 0
  TEAE Vomiting, Toxicity Grade G4: 0
  TEAE Neutropenia, Toxicity Grade All: 1 (16.7)
90 mg (N=6)
  TEAE Constipation, Toxicity Grade All: 1 (16.7)
  TEAE Constipation, Toxicity Grade G3: 0
  TEAE Constipation, Toxicity Grade G4: 0
  TEAE Decreased appetite, Toxicity Grade All: 1 (16.7)
  TEAE Decreased appetite, Toxicity Grade G3: 0
  TEAE Decreased appetite, Toxicity Grade G4: 0
  TEAE Diarrhea, Toxicity Grade All: 0
  TEAE Diarrhea, Toxicity Grade G3: 0
  TEAE Diarrhea, Toxicity Grade G4: 0
  TEAE Fatigue, Toxicity Grade All: 0
  TEAE Fatigue, Toxicity Grade G3: 0
  TEAE Fatigue, Toxicity Grade G4: 0
  TEAE Headache, Toxicity Grade All: 1 (16.7)
  TEAE Headache, Toxicity Grade G3: 0
  TEAE Headache, Toxicity Grade G4: 0
  TEAE Maculopapular rash, Toxicity Grade All: 0
  TEAE Maculopapular rash, Toxicity Grade G3: 0
  TEAE Maculopapular rash, Toxicity Grade G4: 0
  TEAE Nausea, Toxicity Grade All: 2 (33.3)
  TEAE Nausea, Toxicity Grade G3: 0
  TEAE Nausea, Toxicity Grade G4: 0
  TEAE Neutropenia, Toxicity Grade G3: 0
  TEAE Neutropenia, Toxicity Grade G4: 0
  TEAE Vomiting, Toxicity Grade All: 1 (16.7)
  TEAE Vomiting, Toxicity Grade G3: 0
  TEAE Vomiting, Toxicity Grade G4: 0
  TEAE Neutropenia, Toxicity Grade All: 0
120 mg (N=6)
  TEAE Constipation, Toxicity Grade All: 0
  TEAE Constipation, Toxicity Grade G3: 0
  TEAE Constipation, Toxicity Grade G4: 0
  TEAE Decreased appetite, Toxicity Grade All: 1 (16.7)
  TEAE Decreased appetite, Toxicity Grade G3: 0
  TEAE Decreased appetite, Toxicity Grade G4: 0
  TEAE Diarrhea, Toxicity Grade All: 1 (16.7)
  TEAE Diarrhea, Toxicity Grade G3: 0
  TEAE Diarrhea, Toxicity Grade G4: 0
  TEAE Fatigue, Toxicity Grade All: 2 (33.3)
  TEAE Fatigue, Toxicity Grade G3: 0
  TEAE Fatigue, Toxicity Grade G4: 0
  TEAE Headache, Toxicity Grade All: 1 (16.7)
  TEAE Headache, Toxicity Grade G3: 0
  TEAE Headache, Toxicity Grade G4: 0
  TEAE Maculopapular rash, Toxicity Grade All: 1 (16.7)
  TEAE Maculopapular rash, Toxicity Grade G3: 0
  TEAE Maculopapular rash, Toxicity Grade G4: 0
  TEAE Nausea, Toxicity Grade All: 5 (83.3)
  TEAE Nausea, Toxicity Grade G3: 0
  TEAE Nausea, Toxicity Grade G4: 0
  TEAE Neutropenia, Toxicity Grade G3: 0
  TEAE Neutropenia, Toxicity Grade G4: 1 (16.7)
  TEAE Vomiting, Toxicity Grade All: 2 (33.3)
  TEAE Vomiting, Toxicity Grade G3: 1 (16.7)
  TEAE Vomiting, Toxicity Grade G4: 0
  TEAE Neutropenia, Toxicity Grade All: 2 (33.3)
150 mg (N=5)
  TEAE Constipation, Toxicity Grade All: 0
  TEAE Constipation, Toxicity Grade G3: 0
  TEAE Constipation, Toxicity Grade G4: 0
  TEAE Decreased appetite, Toxicity Grade All: 1 (20.0)
  TEAE Decreased appetite, Toxicity Grade G3: 0
  TEAE Decreased appetite, Toxicity Grade G4: 0
  TEAE Diarrhea, Toxicity Grade All: 1 (20.0)
  TEAE Diarrhea, Toxicity Grade G3: 0
  TEAE Diarrhea, Toxicity Grade G4: 0
  TEAE Fatigue, Toxicity Grade All: 1 (20.0)
  TEAE Fatigue, Toxicity Grade G3: 1 (20.0)
  TEAE Fatigue, Toxicity Grade G4: 0
  TEAE Headache, Toxicity Grade All: 1 (20.0)
  TEAE Headache, Toxicity Grade G3: 0
  TEAE Headache, Toxicity Grade G4: 0
  TEAE Maculopapular rash, Toxicity Grade All: 0
  TEAE Maculopapular rash, Toxicity Grade G3: 0
  TEAE Maculopapular rash, Toxicity Grade G4: 0
  TEAE Nausea, Toxicity Grade All: 4 (80.0)
  TEAE Nausea, Toxicity Grade G3: 1 (20.0)
  TEAE Nausea, Toxicity Grade G4: 0
  TEAE Neutropenia, Toxicity Grade G3: 0
  TEAE Neutropenia, Toxicity Grade G4: 1 (20.0)
  TEAE Vomiting, Toxicity Grade All: 2 (40.0)
  TEAE Vomiting, Toxicity Grade G3: 0
  TEAE Vomiting, Toxicity Grade G4: 0
  TEAE Neutropenia, Toxicity Grade All: 2 (40.0)
210 mg (N=7)
  TEAE Constipation, Toxicity Grade All: 4 (57.1)
  TEAE Constipation, Toxicity Grade G3: 0
  TEAE Constipation, Toxicity Grade G4: 0
  TEAE Decreased appetite, Toxicity Grade All: 3 (42.9)
  TEAE Decreased appetite, Toxicity Grade G3: 0
  TEAE Decreased appetite, Toxicity Grade G4: 0
  TEAE Diarrhea, Toxicity Grade All: 0
  TEAE Diarrhea, Toxicity Grade G3: 0
  TEAE Diarrhea, Toxicity Grade G4: 0
  TEAE Fatigue, Toxicity Grade All: 2 (28.6)
  TEAE Fatigue, Toxicity Grade G3: 0
  TEAE Fatigue, Toxicity Grade G4: 0
  TEAE Headache, Toxicity Grade All: 0
  TEAE Headache, Toxicity Grade G3: 0
  TEAE Headache, Toxicity Grade G4: 0
  TEAE Maculopapular rash, Toxicity Grade All: 2 (28.6)
  TEAE Maculopapular rash, Toxicity Grade G3: 0
  TEAE Maculopapular rash, Toxicity Grade G4: 0
  TEAE Nausea, Toxicity Grade All: 4 (57.1)
  TEAE Nausea, Toxicity Grade G3: 0
  TEAE Nausea, Toxicity Grade G4: 0
  TEAE Neutropenia, Toxicity Grade G3: 0
  TEAE Neutropenia, Toxicity Grade G4: 0
  TEAE Vomiting, Toxicity Grade All: 1 (14.3)
  TEAE Vomiting, Toxicity Grade G3: 0
  TEAE Vomiting, Toxicity Grade G4: 0
  TEAE Neutropenia, Toxicity Grade All: 1 (14.3)
300 mg (N=7)
  TEAE Constipation, Toxicity Grade All: 3 (42.9)
  TEAE Constipation, Toxicity Grade G3: 0
  TEAE Constipation, Toxicity Grade G4: 0
  TEAE Decreased appetite, Toxicity Grade All: 3 (42.9)
  TEAE Decreased appetite, Toxicity Grade G3: 0
  TEAE Decreased appetite, Toxicity Grade G4: 0
  TEAE Diarrhea, Toxicity Grade All: 1 (14.3)
  TEAE Diarrhea, Toxicity Grade G3: 0
  TEAE Diarrhea, Toxicity Grade G4: 0
  TEAE Fatigue, Toxicity Grade All: 4 (57.1)
  TEAE Fatigue, Toxicity Grade G3: 0
  TEAE Fatigue, Toxicity Grade G4: 0
  TEAE Headache, Toxicity Grade All: 4 (57.1)
  TEAE Headache, Toxicity Grade G3: 0
  TEAE Headache, Toxicity Grade G4: 0
  TEAE Maculopapular rash, Toxicity Grade All: 2 (28.6)
  TEAE Maculopapular rash, Toxicity Grade G3: 0
  TEAE Maculopapular rash, Toxicity Grade G4: 0
  TEAE Nausea, Toxicity Grade All: 6 (85.7)
  TEAE Nausea, Toxicity Grade G3: 1 (14.3)
  TEAE Nausea, Toxicity Grade G4: 0
  TEAE Neutropenia, Toxicity Grade G3: 0
  TEAE Neutropenia, Toxicity Grade G4: 1 (14.3)
  TEAE Vomiting, Toxicity Grade All: 5 (71.4)
  TEAE Vomiting, Toxicity Grade G3: 0
  TEAE Vomiting, Toxicity Grade G4: 0
  TEAE Neutropenia, Toxicity Grade All: 3 (42.9)
Total (N=42)
  TEAE Constipation, Toxicity Grade All: 10 (23.8)
  TEAE Constipation, Toxicity Grade G3: 0
  TEAE Constipation, Toxicity Grade G4: 0
  TEAE Decreased appetite, Toxicity Grade All: 10 (23.8)
  TEAE Decreased appetite, Toxicity Grade G3: 0
  TEAE Decreased appetite, Toxicity Grade G4: 0
  TEAE Diarrhea, Toxicity Grade All: 7 (16.7)
  TEAE Diarrhea, Toxicity Grade G3: 0
  TEAE Diarrhea, Toxicity Grade G4: 0
  TEAE Fatigue, Toxicity Grade All: 14 (33.3)
  TEAE Fatigue, Toxicity Grade G3: 1 (2.4)
  TEAE Fatigue, Toxicity Grade G4: 0
  TEAE Headache, Toxicity Grade All: 9 (21.4)
  TEAE Headache, Toxicity Grade G3: 0
  TEAE Headache, Toxicity Grade G4: 0
  TEAE Maculopapular rash, Toxicity Grade All: 7 (16.7)
  TEAE Maculopapular rash, Toxicity Grade G3: 0
  TEAE Maculopapular rash, Toxicity Grade G4: 0
  TEAE Nausea, Toxicity Grade All: 25 (59.5)
  TEAE Nausea, Toxicity Grade G3: 2 (4.8)
  TEAE Nausea, Toxicity Grade G4: 0
  TEAE Neutropenia, Toxicity Grade G3: 0
  TEAE Neutropenia, Toxicity Grade G4: 4 (9.5)
  TEAE Vomiting, Toxicity Grade All: 13 (31.0)
  TEAE Vomiting, Toxicity Grade G3: 1 (2.4)
  TEAE Vomiting, Toxicity Grade G4: 0
  TEAE Neutropenia, Toxicity Grade All: 10 (23.8)
